In patent US20120142109A1, “METHOD FOR PRODUCING T CELL POPULATION UNDER PRESENCE OF RETINOIC ACID” (priority 2009, published 2012):

Assays:
Assay type in all cases: cell-based, human
[1] = tested on: CD8 single positive and CD4 single positive cells; assay: Proportion of ZsGreen positive cells by flow cytometry; conditions: Example 3, FIG. 9; gene transfer using virus-bound (fibronectin fragment) plate; 10 nM retinoic acid; 7th day
Experimental: A gene transfer operation was carried out as follows. […] The plate was cultured at 37° C. for 4 hours in a CO2 incubator. The cells after culturing were suspended at 0.1×10^6 cells/mL in a GT-T503 medium containing 1% autologous plasma, 720 IU/mL IL-2, 0.2% HSA, 2.5 μg/mL Fungizone and 10 nM retinoic acid. The resulting suspension was seeded on a 12-well plate, and cultured at 37° C. for 3 days. At the same time, a gene transfer operation and cell culture after gene transfer were similarly carried out using a cell suspension not containing retinoic acid as a control.
Regarding gene transfer using a virus-bound plate for gene transfer, the cell growth rate was measured on the 4th and 7th days, and cell surface markers, the proportion of ZsGreen positive cells and the copy number of a transferred gene were measured on the 7th day.
After initiation of stimulation of the PBMC, the cells on the 7th day in the case of gene transfer using the virus-bound plate for gene transfer, and the cells on the 6th day in the case of gene transfer by a polybrene method were reacted with a PE-Cy7-labeled anti-human CD4 antibody or an APC-Cy7-labeled anti-human CD8 antibody (manufactured by Becton Dickinson) at 4° C. for 20 minutes, washed and, then subjected to flow cytometry analysis using FACScant (manufactured by Becton Dickinson).

[2] = tested on: T2A24 cell pulsed with MAGE-A4; assay: Specific cytotoxic activity of gene-transferred cells, Calcein release
Experimental: Analysis of cytotoxicity of the gene-transferred cell on a MAGE-A4-derived peptide p143 was carried out. […] The suspension was cultured at 37° C. for 1 hour. The cells were washed with a medium not containing Calcein-AM, and mixed with a 10-fold amount of K562 cells (ATCC CCL-243) to prepare Calcein-labeled target cells. The K562 cells were used in order to exclude nonspecific cytotoxic activity due to NK cells commingling with responder cells. The cells on the 10th day after initiation of culture as effector cells were stepwisely diluted with a RPMI 1640 medium containing 10% FBS so as to be 1×10^5 to 1×10^6 cells/mL. Then, 100 μL/well of the dilution was dispended into each well of a 96-well cell culture plate. The Calcein-labeled target cells were adjusted to 1×10^5/mL and added to the wells at 100 μL/well. […] From the each well, 100 μL of the culture supernatant was removed, and the amount of Calcein released into the culture supernatant was measured with a fluorescent plate reader (485 nm/538 nm). “Specific cytotoxic activity (%)” was calculated according to the following mathematical formula 1.
Specific cytotoxic activity(%)=[{(measured value of each well)−(minimum released amount)}/{(maximum released amount)−(minimum released amount)}]×100 [Mathematical formula 1] […]

gene-transferred cell = assay: Provirus copy number of the transferred gene; conditions: Example 3, FIG. 11; ZsGreen gene, virus-bound plate; 10 nM retinoic acid; 7th day
Experimental: The provirus copy number of the transferred gene in the gene-transferred cell was measured with Provirus Copy Number Detection Primer Set. Human (manufactured by TAKARA BIO INC.). In FIG. 6, the ordinate axis indicates the copy number of the transferred gene in a gene-transferred cell. As a result, the copy number was increased by a combination of stimulation by an anti-CD3 antibody alone or fibronectin fragment/anti-CD3 antibody stimulation with addition of retinoic acid, and the increase of the copy number correlated with increase in gene transfer efficiency.
The results of measurement of the copy number of the transferred gene in the gene-transferred cell into which the gene was transferred using the virus-bound plate for gene transfer are shown in FIG. 11. In FIG. 11, the ordinate axis indicates the copy number of the transferred gene in the gene-transferred cell. As a result, the copy number under the combination condition of stimulation by an anti-CD3 antibody alone or fibronectin fragment/anti-CD3 antibody stimulation with addition of retinoic acid was about 2 times the copy number under the condition of no addition of retinoic acid. The copy number correlated with gene transfer efficiency.
The provirus copy number of the transferred gene in the cultured cells was measured using Provirus Copy Number Detection Primer Set. Human (manufactured by TAKARA BIO INC.). […]

PBMC = assay: Cell growth rate relative to cell number at initiation of culture; conditions: Example 2, FIG. 2; fibronectin fragment/anti-CD3 antibody stimulation compared with anti-CD3 antibody alone, regardless of presence or absence of retinoic acid
Experimental: A PBMC prepared from a healthy person from whom informed consent had been obtained was suspended at 0.18×10^6 cells/mL in a GT-T503 medium containing 1% autologous plasma, 720 IU/mL IL-2, 0.2% HSA, 2.5 μg/mL Fungizone and 10 nM retinoic acid. The suspension was added to the fibronectin fragment/anti-CD3 antibody-adherent plate or the anti-CD3 antibody-adherent plate at 2.65 mL/well. As controls, a cell suspension not containing retinoic acid was added to the plates. Each plate was cultured at 37° C. for 4 days in a CO2 incubator.
A gene transfer operation was carried out as follows. The PBMC which had been stimulated with an anti-CD3 antibody alone or a fibronectin fragment/an anti-CD3 antibody for 4 days was added to the virus-bound plate at 0.8×10^6 cells/2.0 mL/well. This plate was cultured at 37° C. overnight in a CO2 incubator. […]
On the 7th day after initiation of stimulation of the PBMC, the cell was seeded at 0.1×10^6 cells/mL, and cultured until the 10th day. The cell growth rate was measured on the 4th, 5th, 7th and 10th days. On the 4th day, cell surface markers before the cell was transferred to the virus-bound plate were measured. On the 10th day, cell surface markers, expression of a transferred TCR and the copy number of a transferred gene were measured. […]

Compound | increase of proportion of ZsGreen positive cells as compared with no addition of retinoic acid [1] [fold] | cytotoxic activity on the specific target cells ([2]; Example 4, FIG. 15, retinoic acid stimulation group vs absence, cells on 10th day, each E/T ratio) | cytotoxic activity on the specific target cells ([2]; Example 5, FIG. 22, RR, OR and R- groups vs O-, E/T 1:1, cells on 11th day) | copy number of the transferred gene relative to no addition of retinoic acid (gene-transferred cell) | cell growth rate (PBMC)
CC1=C(/C=C/C(C)=C/C=C/C(C)=C/C(=O)O)C(C)(C)CCC1 [retinoic acid] | 1.5 | high | higher | about 2 times | –
fibronectin fragment: recombinant fibronectin fragment CH-296, commercially available as RetroNectin (TAKARA BIO INC.) | – | – | – | – | higher
